Earlier results on two compounds are cited in patent publication US9717712B2, “Combinations comprising tricyclohexadecahexaene derivatives for use in the treatment of hepatitis C virus” (BRISTOL-MYERS SQUIBB COMPANY, priority 2013, dated 2017).

Where two headings read alike, the source gives them in different places.

This series has as its system HCV genotype 1a variant with glutamine 30 changed to glutamate in the NS5A protein (Q30E). The note with it: genotype 1a Q30E replicon. A general note: A replicon is a self-replicating genome or part of one, used to study replication in cells.
Where [1] appears, read: single agent, read-out: EC50, compound titrated singly.

Broadly, the EC50 is the concentration that produces a half-maximal response. In the case of `COC(=O)N[C@H](C(=O)N1CCC[C@H]1c1nc(-c2ccc(-c3ccc(-c4c[nH]c([C@@H]5CCCN5C(=O)[C@@H](NC(=O)OC)C(C)C)n4)cc3)cc2)c[nH]1)C(C)C` [BMS-790052], the “reciprocal synergistic inhibitory effect for the combination” value (BMS-790052 titrated with P-55 fixed at 200 nM) is listed as about 100 fold. For the same compound, the half-maximal effective concentration (EC50) runs as follows: (P-55 fixed at 200 nM, read-out: EC50 of BMS-790052 in the presence of a fixed amount of P-55) about 2 nM; under setting [1], about 200 nM.
Regarding `CC(C)CC(=O)N[C@H](c1ncc(-c2ccc(-c3ccc(-c4cnc([C@@H](NC(=O)CC(C)C)C(C)C)[nH]4)cc3)cc2)[nH]1)C(C)C` [Compound P-55], the EC50 runs as follows: (BMS-790052 fixed at 200 nM, read-out: EC50 of P-55 in the presence of a fixed amount of BMS-790052) about 2 nM; under setting [1], over 200 nM. Also, the “synergistic inhibitory effect for the combination” value (P-55 titrated with BMS-790052 fixed at 200 nM) is recorded as over 100 fold.
